Test results as given in patent US20210363254A1, “PHARMACEUTICAL COMBINATIONS” (Novartis AG, priority 2018, published 2021).
Where two headings read alike, the source gives them in different places.

[1] = RDE (Regimen 1B 120 mg) (n = 9)

SMILES: COc1ncc(-c2nc3c(n2C(C)C)[C@H](c2ccc(Cl)cc2)N(c2cc(Cl)cn(C)c2=O)C3=O)c(OC)n1 [HDM201, (S)-5-(5-Chloro-1-methyl-2-oxo-1,2-dihydro-pyridin-3-yl)-6-(4-chloro-phenyl)-2-(2,4-dimethoxy-pyrimidin-5-yl)-1-isopropyl-5,6-dihydro-1H-pyrrolo[3,4-d]imidazol-4-one]
- Nausea, Grade 3/4 (1B all subjects, N=20): 1 n (%)
- Neuralgia, All Grades (1B all subjects, N=20): 1 n (%)
- Neuralgia, Grade 3/4 (1B all subjects, N=20): 0 n (%)
- Neutropenia, All Grades (1B all subjects, N=20): 6 n (%)
- Neutropenia, Grade 3/4 (1B all subjects, N=20): 5 n (%)
- Neutrophil Count Decreased, All Grades (1B all subjects, N=20): 3 n (%)
- Neutrophil Count Decreased, Grade 3/4 (1B all subjects, N=20): 2 n (%)
- Oedema, All Grades (1B all subjects, N=20): 1 n (%)
- Oedema, Grade 3/4 (1B all subjects, N=20): 0 n (%)
- Oral Candidiasis, All Grades (1B all subjects, N=20): 1 n (%)
- Oral Candidiasis, Grade 3/4 (1B all subjects, N=20): 0 n (%)
- Platelet Count Decreased, All Grades (1B all subjects, N=20): 4 n (%)
- Platelet Count Decreased, Grade 3/4 (1B all subjects, N=20): 0 n (%)
- Pruritus, All Grades (1B all subjects, N=20): 1 n (%)
- Pruritus, Grade 3/4 (1B all subjects, N=20): 0 n (%)
- Thrombocytopenia, All Grades (1B all subjects, N=20): 5 n (%)
- Thrombocytopenia, Grade 3/4 (1B all subjects, N=20): 2 n (%)
- Total, All Grades (1B all subjects, N=20): 19 n (%)
- Total, Grade 3/4 (1B all subjects, N=20): 9 n (%)
- Vomiting, All Grades (1B all subjects, N=20): 5 n (%)
- Vomiting, Grade 3/4 (1B all subjects, N=20): 0 n (%)
- Weight Decreased, All Grades (1B all subjects, N=20): 1 n (%)
- Weight Decreased, Grade 3/4 (1B all subjects, N=20): 0 n (%)
- White Blood Cell Count Decreased, All Grades (1B all subjects, N=20): 3 n (%)
- White Blood Cell Count Decreased, Grade 3/4 (1B all subjects, N=20): 0 n (%)
- Anemia, All Grades (All Regimens (N = 85)): 25 (29) n (%)
- Anemia, Grade 3/4 (All Regimens (N = 85)): 10 n (%)
- Decreased Appetite, All Grades (All Regimens (N = 85)): 19 (22) n (%)
- Decreased Appetite, Grade 3/4 (All Regimens (N = 85)): 2 n (%)
- Diarrhea, All Grades (All Regimens (N = 85)): 13 (15) n (%)
- Diarrhea, Grade 3/4 (All Regimens (N = 85)): 0 n (%)
- Fatigue, All Grades (All Regimens (N = 85)): 19 (22) n (%)
- Fatigue, Grade 3/4 (All Regimens (N = 85)): 2 n (%)
- Leukopenia, All Grades (All Regimens (N = 85)): 12 (14) n (%)
- Leukopenia, Grade 3/4 (All Regimens (N = 85)): 8 n (%)
- Nausea, All Grades (All Regimens (N = 85)): 44 (52) n (%)
- Nausea, Grade 3/4 (All Regimens (N = 85)): 1 n (%)
- Neutropenia, All Grades (All Regimens (N = 85)): 18 (21) n (%)
- Neutropenia, Grade 3/4 (All Regimens (N = 85)): 15 n (%)
- Platelet Count Decreased, All Grades (All Regimens (N = 85)): 15 (18) n (%)
- Platelet Count Decreased, Grade 3/4 (All Regimens (N = 85)): 7 n (%)
- Thrombocytopenia, All Grades (All Regimens (N = 85)): 27 (32) n (%)
- Thrombocytopenia, Grade 3/4 (All Regimens (N = 85)): 14 n (%)
- Vomiting, All Grades (All Regimens (N = 85)): 19 (22) n (%)
- Vomiting, Grade 3/4 (All Regimens (N = 85)): 0 n (%)
- White blood cell count decrease, All Grades (All Regimens (N = 85)): 11 (13) n (%)
- White blood cell count decrease, Grade 3/4 (All Regimens (N = 85)): 3 n (%)
- Anemia, All Grades [1]: 2 (22.2) n(%)
- Anemia, G3/4 [1]: 0 n(%)
- Leukopenia/white blood cell count decreased, All Grades [1]: 3 (33.3) n(%)
- Leukopenia/white blood cell count decreased, G3/4 [1]: 0 n(%)
- Neutropenia/neutrophil count decreased, All Grades [1]: 2 (22.2) n(%)
- Neutropenia/neutrophil count decreased, G3/4 [1]: 2 (22.2) n(%)
- Thrombocytopenia/platelet count decreased, All Grades [1]: 4 (44.4) n(%)
- Thrombocytopenia/platelet count decreased, G3/4 [1]: 0 n(%)
- Anemia, All Grades (Regimen 1A (n = 26)): 10 (38.5) n(%)
- Anemia, G3/4 (Regimen 1A (n = 26)): 3 (11.5) n(%)
- Leukopenia/white blood cell count decreased, All Grades (Regimen 1A (n = 26)): 9 (34.6) n(%)
- Leukopenia/white blood cell count decreased, G3/4 (Regimen 1A (n = 26)): 5 (19.2) n(%)
- Neutropenia/neutrophil count decreased, All Grades (Regimen 1A (n = 26)): 9 (34.6) n(%)
- Neutropenia/neutrophil count decreased, G3/4 (Regimen 1A (n = 26)): 8 (30.7) n(%)
- Thrombocytopenia/platelet count decreased, All Grades (Regimen 1A (n = 26)): 12 (46.2) n(%)
- Thrombocytopenia/platelet count decreased, G3/4 (Regimen 1A (n = 26)): 8 (30.8) n(%)
- Anemia, All Grades (Regimen 1B (n = 20)): 5 (25.0) n(%)
- Anemia, G3/4 (Regimen 1B (n = 20)): 0 n(%)
- Leukopenia/white blood cell count decreased, All Grades (Regimen 1B (n = 20)): 5 (25.0) n(%)
- Leukopenia/white blood cell count decreased, G3/4 (Regimen 1B (n = 20)): 1 (5.0) n(%)
- Neutropenia/neutrophil count decreased, All Grades (Regimen 1B (n = 20)): 8 (40.0) n(%)
- Neutropenia/neutrophil count decreased, G3/4 (Regimen 1B (n = 20)): 6 (30.0) n(%)
- Thrombocytopenia/platelet count decreased, All Grades (Regimen 1B (n = 20)): 9 (45.0) n(%)
- Thrombocytopenia/platelet count decreased, G3/4 (Regimen 1B (n = 20)): 2 (10.0) n(%)
- Anemia, All Grades (Regimen 2A (n = 20)): 6 (30.0) n(%)
- Anemia, G3/4 (Regimen 2A (n = 20)): 4 (20.0) n(%)
- Leukopenia/white blood cell count decreased, All Grades (Regimen 2A (n = 20)): 4 (20.0) n(%)
- Leukopenia/white blood cell count decreased, G3/4 (Regimen 2A (n = 20)): 3 (15.0) n(%)
- Neutropenia/neutrophil count decreased, All Grades (Regimen 2A (n = 20)): 5 (25.0) n(%)
- Neutropenia/neutrophil count decreased, G3/4 (Regimen 2A (n = 20)): 4 (20.0) n(%)
- Thrombocytopenia/platelet count decreased, All Grades (Regimen 2A (n = 20)): 10 (50.0) n(%)
- Thrombocytopenia/platelet count decreased, G3/4 (Regimen 2A (n = 20)): 7 (35.0) n(%)
- Anemia, All Grades (Regimen 2C (n = 19)): 4 (21.1) n(%)
- Anemia, G3/4 (Regimen 2C (n = 19)): 3 (15.8) n(%)
- Leukopenia/white blood cell count decreased, All Grades (Regimen 2C (n = 19)): 2 (10.5) n(%)
- Leukopenia/white blood cell count decreased, G3/4 (Regimen 2C (n = 19)): 1 (5.3) n(%)
- Neutropenia/neutrophil count decreased, All Grades (Regimen 2C (n = 19)): 3 (15.8) n(%)
- Neutropenia/neutrophil count decreased, G3/4 (Regimen 2C (n = 19)): 2 (10.5) n(%)
- Thrombocytopenia/platelet count decreased, All Grades (Regimen 2C (n = 19)): 8 (42.1) n(%)
- Thrombocytopenia/platelet count decreased, G3/4 (Regimen 2C (n = 19)): 3 (15.8) n(%)
- nausea, all grade, patients (all 4 regimens, 44/85): 52%
- Grade 3/4 hematological toxicities suspected to be study-drug related, patients (all treatment regimens): ≤ 35%
- overall incidence of grade 3/4 thrombocytopenia compared across the 4 regimens (regimen 1B): lowest
- dose interruptions or discontinuations due to thrombocytopenia (regimen 1B 120 mg): no dose interruptions or discontinuations
- grade 3/4 neutropenia (regimen 1B 120 mg): 2 out of 9
- non-hematologic dose limiting toxicities or grade 3/4 AEs (regimen 1B 120 mg): no non-hematologic dose limiting toxicities or grade 3/4 AEs
- platelet transfusions required (regimen 1B 120 mg): no patients required platelet transfusions
- time to first occurrence of G4 thrombocytopenia (regimen 1B 150 mg): > 100 days
- therapeutic index among the 4 dosing regimens (regimen 1B (d1 and d8 of 4 w cycle)): most favorable therapeutic index
- lipase increase, CTCAE grade 3/4, patients (regimen 1B, 20 patients): 15%
- nausea, all grades, patients (regimen 1B, 20 patients): 60.0%
- neutropenia/neutrophil count decreased, CTCAE grade 3/4, patients (regimen 1B, 20 patients): 30.0%
- neutropenia/neutrophil count decreased, all grades, patients (regimen 1B, 20 patients): 40.0%
- patients with at least one CTCAE grade 3/4 AE suspected to be treatment-related (regimen 1B, 20 patients): 45.0%
- thrombocytopenia/platelet count decrease, CTCAE grade 3/4, patients (regimen 1B, 20 patients): 10.0%
- thrombocytopenia/platelet count decreased, all grades, patients (regimen 1B, 20 patients): 45.0%
- vomiting, all grades, patients (regimen 1B, 20 patients): 25.0%
